Experimental data: patent US8063034B2, “Oxadiazole derivatives and thiadiazole derivatives having neovascularization inhibitory activity” (Santen Pharmaceutical Co., Ltd., priority 2007, dated 2011)
Structures can show the parent of a compound that is named as a salt.

target: T1, tyrosine kinase (KDR) (Homo sapiens, UniProt P35968); experiment: Evaluation test of inhibitory effect of tyrosine kinase (KDR) activity, ELISA method (CARNABIO SCIENCE kit); assay type: biochemical; conditions: 4 mg/L test compound, 1 μM ATP, substrate 250 nM, 1 hour at room temperature, absorbance 450 nm; read-out: tyrosine kinase inhibition rates (% inhibition)
T1 construct: purchased CARNABIO SCIENCE Co. Ltd. JAPAN
Method: In order to find usefulness of the present compounds, a test of inhibitory effect of tyrosine kinase (KDR) activity was conducted on the present compounds using an evaluation system for kinase (KDR) inhibitory activity by way of the ELISA method which is the method for evaluating neovascularization inhibition effect of drugs, and the neovascularization inhibition effects were evaluated.
Evaluation Test of Inhibitory Effect of Tyrosine Kinase (KDR) Activity
As one of the widely-used methods of evaluating inhibitory effect of tyrosine kinase (KDR) activity by drugs, the ELISA method has been reported. The inhibitory effect of tyrosine kinase (KDR) activity of each of the present compounds was evaluated using the commercially available kit (purchased from CARNABIO SCIENCE Co. Ltd. JAPAN) for evaluating inhibitory effect of tyrosine kinase (KDR) activity.
(Preparation of Test Compound Solution)
Each test compound (2 mg) were dissolved in dimethyl sulfoxide (hereinafter abbreviated as DMSO), and the 2 mg/ml stock solution were prepared. Each obtained solution was diluted with 8 μL of DMSO. Each solution (0.4 mg/ml compound) was diluted 25 times with assay buffer to give the test compound solution. For the vehicle, 4% DMSO-Assay Buffer solution was prepared.
(Preparation of ATP/Substrate Solution)
Thaw commercially available ATP/Substrate (purchased from CARNABIO SCIENCE Co. Ltd. JAPAN), then 250 μL of it was added to 1 mL of assay buffer to give ATP/substrate solution. ATP/substrate solution was kept on ice before use.
(Preparation of Enzyme Solution)
7 μL of commercially available tyrosine kinase (purchased from CARNABIO SCIENCE Co. Ltd. JAPAN) was added to 2.793 mL of assay buffer to give enzyme solution. Enzyme solution was kept on ice before use.
(Preparation of Blocking Buffer)
BSA (Sigma, A-7030) was dissolved with wash buffer (50 mM Tris-HCl (pH7.5), 150 mM NaCl, 0.2% Tween-20) to give x100 BSA solution, and the solution was kept at −80° C. Thaw 400 μL of x100 BSA solution before use, it was added to 40 mL of wash buffer to give blocking buffer.
(Preparation of Detection Mixture)
40 μL of commercially available HRP-conjugated antibody (purchased from CARNABIO SCIENCE Co. Ltd. JAPAN) was added to 12 mL of blocking buffer to give detection mixture.
(Method of Test and Method of Measurement)
1) Add 10 μL of each test compound solution, 10 μL of ATP/substrate solution and 20 μL of enzyme solution to each well of ELISA plate (streptavidin-coated 96-well plate, PerkinElmer, 4009-0010). Incubate for 1 hour at room temperature (4 mg/L test compound solution, 15 mM Tris-HCl (pH7.5), 0.01% Tween 20, 2 mM DTT, concentration of substrate: 250 nM, 1 μM ATP, 5 mM Mg). For the vehicle, the above mentioned 4% DMSO-assay buffer solution was added instead of test compound solution.
2) Aspirate each well and wash with wash buffer, repeating the process three times for four washes.
3) Add 200 μL of blocking buffer to each well and cover the plate and incubate for 30 minutes.
4) Aspirate each well, add 100 μL of detection mixture to each well and incubate the plate for 30 minutes.
5) Aspirate each well and wash with wash buffer 4 times.
6) Add 100 μL of color reagent to each well. Incubate for 5 minutes and then add 0.1 M H2SO4 to each well.
7) Measure the absorbance of each well, using a plate reader set to […].
(Calculation of Kinase Inhibition Rate)
Rate of the reaction positive control well with kinase was considered 0% inhibition, rate of the reaction negative control well with assay buffer instead of kinase was considered 100% inhibition, and so the inhibition rates of test compound well were calculated based on the absorbance of them.
A: Absorbance of the reaction positive control well
B: Absorbance of the reaction negative control well
C: Absorbance of the test compound well
tyrosine kinase inhibition rates (%)=100 [1-(C-A)/(B-A)]

T1 sequence (P35968 790-1356 limits assumed): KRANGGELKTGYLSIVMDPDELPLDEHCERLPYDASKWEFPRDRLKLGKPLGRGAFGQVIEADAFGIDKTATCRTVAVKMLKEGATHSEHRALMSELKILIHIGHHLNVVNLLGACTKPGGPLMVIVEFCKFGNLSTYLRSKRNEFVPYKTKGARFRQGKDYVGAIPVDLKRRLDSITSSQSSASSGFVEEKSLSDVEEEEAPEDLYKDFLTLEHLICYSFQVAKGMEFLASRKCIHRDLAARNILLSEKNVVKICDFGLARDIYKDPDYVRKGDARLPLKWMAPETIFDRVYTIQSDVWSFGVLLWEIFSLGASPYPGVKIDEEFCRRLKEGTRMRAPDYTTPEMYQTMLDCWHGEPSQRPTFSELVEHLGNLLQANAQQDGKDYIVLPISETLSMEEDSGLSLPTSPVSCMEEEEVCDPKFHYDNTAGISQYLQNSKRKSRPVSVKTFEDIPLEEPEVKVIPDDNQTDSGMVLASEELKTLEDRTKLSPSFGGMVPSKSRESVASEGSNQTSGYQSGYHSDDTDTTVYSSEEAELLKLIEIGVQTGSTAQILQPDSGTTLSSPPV

Compound	inhibition at 4 µg/mL
c1ccc(Nc2nnc(-c3ccccc3OCc3ccncc3)o2)cc1 [Compound 1-1, N-Phenyl-5-(2-(pyridin-4-yl)methoxyphenyl)-1,3,4-oxadiazol-2-amine]	55%
CC(C)(C)OC(=O)Nc1cc(CSc2ncccc2-c2nnc(Nc3ccccc3)o2)ccn1 [Compound 1-7, 5-(2-(2-t-Butoxycarbonylaminopyridin-4-yl)methylthiopyridin-3-yl)-N-phenyl-1,3,4-oxadiazol-2-amine]	60%
Clc1ccc(Nc2nnc(-c3cccnc3SCc3ccnc4ccccc34)o2)cc1 [Compound 1-14, N-(4-Chlorophenyl)-5-(2-(quinolin-4-yl)methylthiopyridin-3-yl)-1,3,4-oxadiazol-2-amine]	90%
CC(=O)Nc1cc(CSc2ncccc2-c2nnc(Nc3ccccc3)o2)ccn1 [Compound 1-16, 5-(2-(2-Acetamidopyridin-4-yl)methylthiopyridin-3-yl)-N-phenyl-1,3,4-oxadiazol-2-amine]	95%
CC(=O)Nc1cc(CSc2ncccc2-c2nnc(Nc3ccc(Cl)cc3)o2)ccn1 [Compound 1-17, 5-(2-(2-Acetamidopyridin-4-yl)methylthiopyridin-3-yl)-N-(4-chlorophenyl)-1,3,4-oxadiazol-2-amine]	94%
c1ccc(Nc2nnc(-c3ccccc3SCc3ccncc3)o2)cc1 [Compound 1-32, N-Phenyl-5-(2-(pyridin-4-yl)methylthiophenyl)-1,3,4-oxadiazol-2-amine]	55%
c1ccc(Nc2nnc(-c3ccccc3SCc3ccncc3)s2)cc1 [Compound 1-35, N-Phenyl-5-(2-(pyridin-4-yl)methylthiophenyl)-1,3,4-thiadiazol-2-amine]	58%
Clc1cccc(Nc2nnc(-c3ccccc3SCc3ccncc3)s2)c1 [Compound 1-37, N-(3-Chlorophenyl)-5-(2-(pyridin-4-yl)methylthiophenyl)-1,3,4-thiadiazol-2-amine]	84%
FC(F)(F)c1ccc(Nc2nnc(-c3ccccc3SCc3ccncc3)s2)cc1 [Compound 1-38, 5-(2-(Pyridin-4-yl)methylthiophenyl)-N-(4-trifluoromethylphenyl)-1,3,4-thiadiazole-2-amine]	53%
Clc1ccc(Nc2nnc(-c3ccccc3SCc3ccncc3)o2)cc1 [Compound 1-41, N-(4-Chlorophenyl)-5-(2-(pyridin-4-yl)methylthiophenyl)-1,3,4-oxadiazol-2-amine]	82%
CC(=O)Nc1cc(CSc2ccccc2-c2nnc(Nc3ccc(Cl)cc3)o2)ccn1 [Compound 1-45]	91%
Nc1nccc(CSc2ccccc2-c2nnc(Nc3ccccc3)o2)n1 [Compound 1-47, 5-(2-(2-Aminopyrimidin-4-yl)methylthiophenyl)-N-phenyl-1,3,4-oxadiazol-2-amine]	75%
Nc1cc(CSc2ncccc2-c2nnc(Nc3ccc(Cl)cc3)o2)ccn1 [Compound 1-91, 5-(2-(2-Aminopyridin-4-yl)methylthiopyridin-3-yl)-N-(4-chlorophenyl)-1,3,4-oxadiazol-2-amine hydrochloride]	86%
Nc1cc(CSc2ncccc2-c2nnc(Nc3cccc(C(F)(F)F)c3)o2)ccn1 [Compound 1-92, 5-(2-(2-Aminopyridin-4-yl)methylthiopyridin-3-yl)-N-(3-trifluoromethylphenyl)-1,3,4-oxadiazol-2-amine hydrochloride]	98%

Further lines, results first:

inhibition at 4 µg/mL	Compound
80%	FC(F)(F)c1cccc(Nc2nnc(-c3ccccc3OCc3ccncc3)o2)c1 [Compound 1-3, 5-(2-(Pyridin-4-yl)methoxyphenyl)-N-(3-trifluoromethylphenyl)-1,3,4-oxadiazol-2-amine]
75%	c1ccc(Nc2nnc(-c3ccccc3OCc3ccnc4ccccc34)o2)cc1 [Compound 1-4, N-Phenyl-5-(2-(quinolin-4-yl)methoxyphenyl)-1,3,4-oxadiazol-2-amine]
65%	CC(=O)Nc1cc(COc2ccccc2-c2nnc(Nc3ccccc3)o2)ccn1 [Compound 1-6, 5-(2-(2-Acetamidopyridin-4-yl)methoxyphenyl)-N-phenyl-1,3,4-oxadiazol-2-amine]
76%	c1ccc(Nc2nnc(-c3cccnc3SCc3ccncc3)o2)cc1 [Compound 1-10, N-Phenyl-5-(2-(pyridin-4-yl)methylthiopyridin-3-yl)-1,3,4-oxadiazol-2-amine]
72%	c1ccc(Nc2nnc(-c3cccnc3SCc3ccnc4ccccc34)o2)cc1 [Compound 1-13, N-Phenyl-5-(2-(quinolin-4-yl)methylthiopyridin-3-yl)-1,3,4-oxadiazol-2-amine]
99%	CC(=O)Nc1cc(CSc2ncccc2-c2nnc(Nc3cccc(C(F)(F)F)c3)o2)ccn1 [Compound 1-18, 5-(2-(2-Acetamidopyridin-4-yl)methylthiopyridin-3-yl)-N-(3-trifluoromethylphenyl)-1,3,4-oxadiazol-2-amine]
86%	CNC(=O)c1cc(CSc2ncccc2-c2nnc(Nc3ccc(Cl)cc3)o2)ccn1 [Compound 1-20, N-(4-Chlorophenyl)-5-(2-(2-methylaminocarbonylpyridin-4-yl)methylthiopyridin-3-yl)-1,3,4-oxadiazol-2-amine]
93%	CNC(=O)c1cc(CSc2ncccc2-c2nnc(Nc3cccc(C(F)(F)F)c3)o2)ccn1 [Compound 1-21, 5-(2-(2-Methylaminocarbonylpyridin-4-yl)methylthiopyridin-3-yl)-N-(3-trifluoromethylphenyl)-1,3,4-oxadiazol-2-amine]
95%	FC(F)(F)c1cccc(Nc2nnc(-c3ccccc3SCc3ccncc3)o2)c1 [Compound 1-33, 5-(2-(Pyridin-4-yl)methylthiophenyl)-N-(3-trifluoromethylphenyl)-1,3,4-oxadiazol-2-amine]
86%	CC(C)(C)c1ccc(Nc2nnc(-c3ccccc3SCc3ccncc3)o2)cc1 [Compound 1-34, N-(4-t-Butylphenyl)-5-(2-(pyridin-4-yl)methylthiophenyl)-1,3,4-oxadiazol-2-amine]
68%	Clc1ccc(Nc2nnc(-c3ccccc3SCc3ccncc3)s2)cc1 [Compound 1-36, N-(4-Chlorophenyl)-5-(2-(pyridin-4-yl)methylthiophenyl)-1,3,4-thiadiazol-2-amine]
43%	CC(C)(C)c1ccc(Nc2nnc(-c3ccccc3SCc3ccncc3)s2)cc1 [Compound 1-39, N-(4-t-Butylphenyl)-5-(2-(pyridin-4-yl)methylthiophenyl)-1,3,4-thiadiazol-2-amine]
88%	c1ccc(Nc2nnc(-c3ccccc3SCc3ccnc4ccccc34)o2)cc1 [Compound 1-40, N-Phenyl-5-(2-(quinolin-4-yl)methylthiophenyl)-1,3,4-oxadiazol-2-amine]
98%	CC(=O)Nc1cc(CSc2ccccc2-c2nnc(Nc3cccc(C(F)(F)F)c3)o2)ccn1 [Compound 1-46, 5-(2-(2-Acetamidopyridin-4-yl)methylthiophenyl)-N-(3-trifluoromethylphenyl)-1,3,4-oxadiazol-2-amine]
